Tested on: 519858-162-T-J1-PDC complex spheroid growth, % test/control
Experiment: Anticancer human tumor 519858-162-T-J1-PDC patient-derived colon adenocarcinoma cell line growth inhibition [Asc]
Conditions: for IC50: curve of first compound; for viability, T/C: stronger effect = lower value
Summary of the method: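 Complex solid-tumor spheroids incorporating human endothelial and mesenchymal stem cells received single agents or combinations over half-log dilution ranges anchored to clinical Cmax.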

[1] = second compound 0.0316 µM, first compound 0.0316 µM
[2] = second compound 0.0316 µM, first compound 0.1 µM
[3] = second compound 0.0316 µM, first compound 0.316 µM
[4] = second compound 0.0316 µM, first compound 1 µM
[5] = second compound 0.1 µM, first compound 0.0316 µM
[6] = second compound 0.1 µM, first compound 0.1 µM
[7] = second compound 0.1 µM, first compound 0.316 µM
[8] = second compound 0.1 µM, first compound 1 µM
[9] = second compound 0.316 µM, first compound 0.0316 µM
[10] = second compound 0.316 µM, first compound 0.1 µM
[11] = second compound 0.316 µM, first compound 0.316 µM
[12] = second compound 0.316 µM, first compound 1 µM
[13] = second compound 1 µM, first compound 0.0316 µM
[14] = second compound 1 µM, first compound 0.1 µM
[15] = second compound 1 µM, first compound 0.316 µM
[16] = second compound 1 µM, first compound 1 µM
[17] = second compound 3.16 µM, first compound 0.0316 µM
[18] = second compound 3.16 µM, first compound 0.1 µM
[19] = second compound 3.16 µM, first compound 0.316 µM
[20] = second compound 3.16 µM, first compound 1 µM
[21] = second compound 10 µM, first compound 0.0316 µM
[22] = second compound 10 µM, first compound 0.1 µM
[23] = second compound 10 µM, first compound 0.316 µM
[24] = second compound 10 µM, first compound 1 µM
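Note: seven day drug exposure begun three days after spheroid seeding.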
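Throughout, for viability, T/C: 100% = DMSO vehicle wells and lower values mean less viable spheroid.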

Compound `C=CC(=O)N1CCN(c2nc(=O)n(-c3c(C)ccnc3C(C)C)c3nc(-c4c(O)cccc4F)c(F)cc23)C(C)C1` (centres undefined) + Cc1c(S(C)(=O)=O)c(-c2cc(F)cc(N3CCN(c4ccc(NS(=O)(=O)c5ccc(NC(CCN6CCC(C(=O)OCCCP(=O)(O)O)CC6)CSc6ccccc6)c(S(=O)(=O)C(F)(F)F)c5)cc4)CC3)c2)c(-c2ccc(Cl)cc2)n1C(C)C has an IC50 (second compound 0.0316 µM) greater than 10000 nM, an IC50 (second compound 0.1 µM) greater than 10000 nM and an IC50 (second compound 0.316 µM) greater than 10000 nM. The IC50 (second compound 1 µM) was greater than 10000 nM, the IC50 (second compound 3.16 µM) was greater than 10000 nM and the IC50 (second compound 10 µM) was 31.6 nM. It also gave a viability, T/C [1] of 93.5%, a viability, T/C [2] of 97.2% and a viability, T/C [3] of 83.9%. The viability, T/C [4] was 79.4%, the viability, T/C (second compound 0.0316 µM, first compound 3.16 µM) was 83.8% and the viability, T/C (second compound 0.0316 µM, first compound 10 µM) was 70.9%. It also gave a viability, T/C [5] of 84.2%, a viability, T/C [6] of 84.3% and a viability, T/C [7] of 82.5%. It also gave a viability, T/C [8] of 89.5%, a viability, T/C (second compound 0.1 µM, first compound 3.16 µM) of 87.7% and a viability, T/C (second compound 0.1 µM, first compound 10 µM) of 77%. For the same compound, the viability, T/C [9] was 89.7%, the viability, T/C [10] was 86.6% and the viability, T/C [11] was 76.2%. For the same compound, the viability, T/C [12] was 75.5%, the viability, T/C (second compound 0.316 µM, first compound 3.16 µM) was 68.7% and the viability, T/C (second compound 0.316 µM, first compound 10 µM) was 66.1%. It also gave a viability, T/C [13] of 62.6%, a viability, T/C [14] of 58.5% and a viability, T/C [15] of 72.4%. It also gave a viability, T/C [16] of 69.5%, a viability, T/C (second compound 1 µM, first compound 3.16 µM) of 87.9% and a viability, T/C (second compound 1 µM, first compound 10 µM) of 73.6%. It also gave a viability, T/C [17] of 72.8%, a viability, T/C [18] of 77.9% and a viability, T/C [19] of 64%. The viability, T/C [20] was 60.6%, the viability, T/C (second compound 3.16 µM, first compound 3.16 µM) was 56.3% and the viability, T/C (second compound 3.16 µM, first compound 10 µM) was 68.9%. For the same compound, the viability, T/C [21] was 52.9%, the viability, T/C [22] was 53.7% and the viability, T/C [23] was 46.9%. It also gave a viability, T/C [24] of 55.3%, a viability, T/C (second compound 10 µM, first compound 3.16 µM) of 83.2% and a viability, T/C (second compound 10 µM, first compound 10 µM) of 63.7%.
`COc1c(OCCCN2CCOCC2)ccc2c3n(c(=NC(=O)c4cnc(N)nc4)nc12)CCN3` + Cc1c(S(C)(=O)=O)c(-c2cc(F)cc(N3CCN(c4ccc(NS(=O)(=O)c5ccc(NC(CCN6CCC(C(=O)OCCCP(=O)(O)O)CC6)CSc6ccccc6)c(S(=O)(=O)C(F)(F)F)c5)cc4)CC3)c2)c(-c2ccc(Cl)cc2)n1C(C)C was tested, and the IC50 (second compound 0.0316 µM) was greater than 1000 nM, the IC50 (second compound 0.1 µM) was 578 nM and the IC50 (second compound 0.316 µM) was greater than 1000 nM. The IC50 (second compound 1 µM) was 238 nM, the IC50 (second compound 3.16 µM) was greater than 1000 nM and the IC50 (second compound 10 µM) was greater than 1000 nM. For the same compound, the viability, T/C (second compound 0.0316 µM, first compound 0.00316 µM) was 41.6%, the viability, T/C (second compound 0.0316 µM, first compound 0.01 µM) was 97.5% and the viability, T/C [1] was 74.9%. The viability, T/C [2] was 95.5%, the viability, T/C [3] was 54.4% and the viability, T/C [4] was 52.7%. It also gave a viability, T/C (second compound 0.1 µM, first compound 0.00316 µM) of 68.5%, a viability, T/C (second compound 0.1 µM, first compound 0.01 µM) of 94.5% and a viability, T/C [5] of 64.7%. It also gave a viability, T/C [6] of 100%, a viability, T/C [7] of 53.2% and a viability, T/C [8] of 47.1%. It also gave a viability, T/C (second compound 0.316 µM, first compound 0.00316 µM) of 65.2%, a viability, T/C (second compound 0.316 µM, first compound 0.01 µM) of 103% and a viability, T/C [9] of 69.4%. The viability, T/C [10] was 72.7%, the viability, T/C [11] was 52.2% and the viability, T/C [12] was 53.5%. For the same compound, the viability, T/C (second compound 1 µM, first compound 0.00316 µM) was 108%, the viability, T/C (second compound 1 µM, first compound 0.01 µM) was 97.1% and the viability, T/C [13] was 74.7%. The viability, T/C [14] was 59.8%, the viability, T/C [15] was 46.8% and the viability, T/C [16] was 42.2%. It also gave a viability, T/C (second compound 3.16 µM, first compound 0.00316 µM) of 84.1%, a viability, T/C (second compound 3.16 µM, first compound 0.01 µM) of 60.8% and a viability, T/C [17] of 79.2%. For the same compound, the viability, T/C [18] was 70.3%, the viability, T/C [19] was 53.9% and the viability, T/C [20] was 55.6%. For the same compound, the viability, T/C (second compound 10 µM, first compound 0.00316 µM) was 78.3%, the viability, T/C (second compound 10 µM, first compound 0.01 µM) was 72.1% and the viability, T/C [21] was 71.1%. For the same compound, the viability, T/C [22] was 45.6%, the viability, T/C [23] was 58.2% and the viability, T/C [24] was 46.2%.

Reference: PubChem BioAssay AID1963421 (Molecular Pharmacology Branch, DTP, NCI, 2024)
